We go through ten compounds from publication PMC7824826, “SZR-104, a Novel Kynurenic Acid Analogue with High Permeability through the Blood–Brain Barrier” (Pharmaceutics, 2021).

The subject of data set [1] is in vitro blood–brain barrier model (primary rat brain endothelial cells and pericytes on Transwell filters, glial-conditioned media). Put plainly: Permeability assay through the in vitro BBB model. The class given is in vitro ADME. The following applies: for Papp% (permeability coefficient compared to sodium-fluorescein) / Papp % (permeability coefficient compared to KYNA): 10 µM in top compartment; for Papp% (permeability coefficient compared to sodium-fluorescein): N = 2, relative to sodium-fluorescein; for Permeability compared to other analogues: p < 0.05; for BBB penetration compared to the other derivatives tested: conclusion; for Papp % (permeability coefficient compared to KYNA): N = 3, relative to KYNA; for Differences among permeability of KYNA, xanthurenic acid and 39B: 30 and 60 min. As to the method: Primary rat brain endothelial cells (RBECs) were isolated from 2-week old rats. Animals were sacrificed by cervical dislocation. Briefly, after removal of meninges, cerebral cortices were cut into small pieces and digested in two steps with 1 mg/mL collagenase type 2 and 1 mg/mL collagenase/dispase, followed by centrifugation on a percoll gradient (all from Sigma-Aldrich, St. Louis, MO, USA). Isolated microvessels were plated on fibronectin/collagen-coated dishes. Endothelial cells growing out of the microvessels were cultured in DMEM/F12 (Thermo Fisher Scientific, Waltham, MA, USA), 10% plasma-derived serum (PDS, First Link UK Ltd, Birmingham, UK) and growth factors. In the first two days, 4 µg/mL puromycin (Sigma-Aldrich) was added to remove contaminating cells. Cells were frozen in liquid nitrogen and passage 1 cells were further used. Rat brain pericytes were obtained from cerebral microvessels plated onto rat-tail collagen-coated dishes in PM medium (ScienCell, Carlsbad, CA, USA) complemented with 5% fetal bovine serum (FBS) and penicillin/streptomycin. Cells were split into new dishes, frozen in liquid nitrogen and passage 4 cells were further used. Glial cultures (>90% astrocytes) were prepared from newborn rats and cultured on poly-L-lysine-coated surfaces in DMEM (Thermo Fisher Scientific) and 10% FBS (Thermo Fisher Scientific). After reaching confluence, conditioned media was collected twice a week, centrifuged, sterile filtered and kept at −20 °C.
Pericytes were plated onto the backside of 12-well semipermeable filters (Corning-Costar Transwell Clear; pore size: 0.4 μm; 1.5 × 10^4 cells/filter). The next day, RBECs were plated onto the upper surface of the filters. […] TEER was followed until reaching plateau of 150–250 Ohm × cm^2.
Transwell filters containing endothelial cells and pericytes were removed from the CellZscope instrument. Filters were washed with Ringer-HEPES solution (pH = 7.4). […] The bottom compartment was loaded with Ringer-HEPES. Filters were placed to 37 °C and gentle shaking (110 rpm) was applied. Samples were taken from the basolateral side after 30 and 60 min. The concentrations of the samples were quantitated as described below and apparent permeability was calculated using the formula: Papp = dQ/(dT × A × C0), where dQ is the transported amount, dT is the incubation time, A is the surface of filter (1.12 cm^2), and C0 is the initial concentration. Statistical analysis was performed with ANOVA and Bonferroni’s post-hoc test.
The concentrations of the samples were quantitated with an Agilent 1100 HPLC system (Agilent Technologies, Santa Clara, CA, USA), consisting of a binary pump, a micro vacuum degasser, a thermostated column compartment, an automatic liquid sampler, a MS detector (LCMSD VL), and ChemStation data managing software. Chromatographic separations with the HPLC-MS system were performed on a Kinetex C18 column, 100 × 4.6 mm 2.6 μm particle size (Phenomenex, Torrance, CA, USA) with a mobile phase composition of 0.05% aqueous HCOOH/ACN = 90/10 (v/v), applying isocratic elution. The flow rate and the injection volume were 1 mL/min and 20 µL, respectively. The mass spectrometer was used in positive electrospray ionization mode. The drying gas temperature, drying gas flow rate, nebulizer pressure and capillary voltage were 350 °C, 13 L/min, 60 psi and 3500 V, respectively. […]

For data set [2], the system named is human lymphoma U-937 cells. Also noted: method as in PMID 31316502. The conditions noted are these: U-937 cells infected with Staphylococcus aureus; cited from earlier work.
Data set [3] relates to PACAP mRNA expression in nucleus trigeminalis caudalis. Also noted: method as in PMID 29387039. The conditions noted are these: animal model of migraine; cited from earlier work.
The next data set concerns MAPK and NFκB. The following applies: intraperitoneally administered; cited from earlier work.
Data set [4] relates to c-fos and glutamate in NTC neurons. More on the design: method as in PMID 28337634. The conditions noted are these: systematic injection; cited from earlier work.
The next data set deals with NTC. Also noted: method as in PMID 27919017. The following applies: cited from earlier work.
Data set [5] concerns transgenic mouse model of HD. Also noted: method as in PMID 21194001. The conditions noted are these: cited from earlier work.
A further data set relates to hippocampus. More on the design: method as in PMID 22231843. The following applies: systemic administration; cited from earlier work.

For `O=C(NCCN1CCCC1)c1nc2ccccc2c(O)c1CN1CCCC1` [SZR-107], the “Papp% (permeability coefficient compared to sodium-fluorescein)” value (“Papp%” for short) in data set [1] (60 min) worked out at 156%.
For `O=C(NCCN1CCCC1)c1nc2ccccc2c(O)c1CN1CCOCC1` [SZR-105], the “Papp%” value in data set [1] (60 min) came to 319%. Besides, the “Permeability compared to other analogues” value in data set [1] (10 µM, 60 min) is on record as “significantly higher”. For the same compound, in data set [1], the “BBB penetration compared to the other derivatives tested” value is “high BBB penetration”. Besides, in data set [2], the TNF-α production result is reported as “reduced” and the “mRNA expression of TSG-6” value is “increased”.
Take `CN(C)CCNC(=O)c1cc(=O)c2ccccc2[nH]1` [SZR-72, N-(2-N,N-dimethylaminoethyl)-4-oxo-1H-quinoline-2-carboxamide]: in data set [3], the “Electrical TRG stimulation-induced PACAP mRNA expression in NTC” value is listed as “decreased”. Also, in the data set with MAPK and NFκB, the “Overexpression of MAPK and NFκB” value is “reduced”. The “Elevated levels of c-fos and glutamate in NTC neurons” value in data set [4] is recorded as “abolished”. Besides, the “Nitroglycerin-induced neuronal activation in NTC (antihyperalgesic effect)” value with NTC is recorded as “attenuating”. Moreover, in data set [5], the “Atrophy of the striatal neurons” value was “completely prevented”, the Hypolocomotion result is on record as “ameliorated” and the Lifetime of mice entry is given as “prolonged”.
In the case of `CN(C)CCNC(=O)c1nc2ccccc2c(O)c1CN1CCCCC1` [SZR-100], in data set [1] (60 min), the “Papp%” value amounted to 177%.
The same measure, in the same setting: the same measure for `CN(C)CCNC(=O)c1nc2ccccc2c(O)c1CN1CCCC1` [SZR-106]: 230%.
`O=C(O)c1cc(O)c2cccc(O)c2n1` [xanthurenic acid]: the “Papp % (permeability coefficient compared to KYNA)” value (“Papp %” below) in data set [1] (30 min) amounted to 110%; in data set [1] (60 min) it was 89%. Moreover, the “Differences among permeability of KYNA, xanthurenic acid and 39B” value (“Differences among permeability of KYNA” below) in data set [1] (10 µM) is given as “not statistically significant”.
Consider `CN(C)CCNC(=O)c1nc2ccccc2c(O)c1CN1CCOCC1` [SZR-104, N-(2-(dimethylamino)ethyl)-3-(morpholinomethyl)-4-hydroxyquinoline-2-carboxamide], for which the “Papp %” value in data set [1] (30 min) was determined as 210%. In data set [1] (60 min), the “Papp%” value was found to be 325% and the “Papp %” value came out at 222%. Further, the “Permeability compared to other analogues” value in data set [1] (10 µM, 60 min) is listed as “significantly higher”. The “Permeability compared to KYNA, xanthurenic acid or 39B” value in data set [1] (10 µM, both at 30 min and 60 min, p < 0.01) is given as “significantly higher permeability”. The “BBB penetration compared to the other derivatives tested” value in data set [1] is reported as “high BBB penetration”. For the same compound, in data set [2], the TNF-α production entry is “reduced” and the “mRNA expression of TSG-6” value is reported as “increased”. Moreover, in the data set with hippocampus, the “Population spike activity in the hippocampus” value is “decreased” and the “Protection against pentylenetetrazol-induced epileptiform seizures” value is listed as “provided protection”.
With `O=C(O)c1cc(=O)c2ccccc2[nH]1` [KYNA, kynurenic acid], the “Papp %” value in data set [1] (30 min) and in data set [1] (60 min) was 100% in each case. Also, the “Differences among permeability of KYNA” value in data set [1] (10 µM) was “not statistically significant”. The “Electrical TRG stimulation-induced PACAP mRNA expression in NTC” value in data set [3] is “decreased”. The “Overexpression of MAPK and NFκB” value in the data set on MAPK and NFκB is reported as “reduced”. The “Elevated levels of c-fos and glutamate in NTC neurons” value in data set [4] was “abolished”. Further, the “Nitroglycerin-induced neuronal activation in NTC (antihyperalgesic effect)” value in the data set with NTC is reported as “attenuating”.
`O=C(O)c1[nH]c2c(O)cccc2c(=O)c1CN1CCOCC1` [39B, 8-Hydroxy-3-(Morpholinomethyl)-4-Oxo-1,4-Dihydroquinoline-2-Carboxylic Acid]: the entries for the “Papp %” value in data set [1] (30 min) and in data set [1] (60 min) were 54% and 74%, respectively. Moreover, the “Differences among permeability of KYNA” value in data set [1] (10 µM) is recorded as “not statistically significant”.
For `O=C(NCCN1CCCC1)c1nc2ccccc2c(O)c1CN1CCCCC1` [SZR-101], the “Papp%” value in data set [1] (60 min) turned out to be 131%.
